This is an account of results in publication PMC2644263 (Molecular cell, 2008).

For the experiment, the target named is Bub1 (Homo sapiens, UniProt O43683). Briefly: in vitro […] kinase assay with purified kinase, […] ATP, phosphoimager. Type of experiment: biochemical.

Molecules are shown by their SMILES. pIC50: −log10 of the molar value.

Sequence of Bub1 (O43683 724-1085): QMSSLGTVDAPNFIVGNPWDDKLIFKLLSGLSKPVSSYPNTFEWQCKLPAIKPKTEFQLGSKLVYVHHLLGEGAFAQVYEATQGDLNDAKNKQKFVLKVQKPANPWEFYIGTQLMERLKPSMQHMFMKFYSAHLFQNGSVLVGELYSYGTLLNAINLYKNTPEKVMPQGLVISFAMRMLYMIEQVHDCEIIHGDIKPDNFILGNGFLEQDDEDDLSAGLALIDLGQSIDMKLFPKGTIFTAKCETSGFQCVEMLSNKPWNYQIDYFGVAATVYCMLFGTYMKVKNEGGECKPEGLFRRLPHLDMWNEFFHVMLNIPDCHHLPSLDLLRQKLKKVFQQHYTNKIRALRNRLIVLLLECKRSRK

In the case of `CC(C)(C)n1nc(Cc2ccccc2O)c2c(N)ncnc21` [2OH-BNPP1], the pIC50 (in general, the negative decadic logarithm of the IC50, by convention in mol/L) was approximately 6.60.
